Blank lines part the entries; values can stand above or below the molecule they belong to. Where a SMILES comes first, the peptide text is derived from it.
What was measured:
B*3909 = B*3909 (Homo sapiens, UniProt P01889, A182T/A93T/A95T/C349S/D138N/D201E/E176V/E187T/E204Q/K202T/Q94N/R155S/R180L/S121R/Y123S/Y140F/Y91C); assay: cell-based
aminopeptidase M = conditions: pig, 37°C, up to 10 min
20S proteasome = assay: purified 20S proteasome; conditions: human, 37°C, up to 24 h
[1] = biological target: T1, aminopeptidase M from pig kidney (Sus scrofa, UniProt P15145)
T1 sequence (P15145 whole entry, looked up): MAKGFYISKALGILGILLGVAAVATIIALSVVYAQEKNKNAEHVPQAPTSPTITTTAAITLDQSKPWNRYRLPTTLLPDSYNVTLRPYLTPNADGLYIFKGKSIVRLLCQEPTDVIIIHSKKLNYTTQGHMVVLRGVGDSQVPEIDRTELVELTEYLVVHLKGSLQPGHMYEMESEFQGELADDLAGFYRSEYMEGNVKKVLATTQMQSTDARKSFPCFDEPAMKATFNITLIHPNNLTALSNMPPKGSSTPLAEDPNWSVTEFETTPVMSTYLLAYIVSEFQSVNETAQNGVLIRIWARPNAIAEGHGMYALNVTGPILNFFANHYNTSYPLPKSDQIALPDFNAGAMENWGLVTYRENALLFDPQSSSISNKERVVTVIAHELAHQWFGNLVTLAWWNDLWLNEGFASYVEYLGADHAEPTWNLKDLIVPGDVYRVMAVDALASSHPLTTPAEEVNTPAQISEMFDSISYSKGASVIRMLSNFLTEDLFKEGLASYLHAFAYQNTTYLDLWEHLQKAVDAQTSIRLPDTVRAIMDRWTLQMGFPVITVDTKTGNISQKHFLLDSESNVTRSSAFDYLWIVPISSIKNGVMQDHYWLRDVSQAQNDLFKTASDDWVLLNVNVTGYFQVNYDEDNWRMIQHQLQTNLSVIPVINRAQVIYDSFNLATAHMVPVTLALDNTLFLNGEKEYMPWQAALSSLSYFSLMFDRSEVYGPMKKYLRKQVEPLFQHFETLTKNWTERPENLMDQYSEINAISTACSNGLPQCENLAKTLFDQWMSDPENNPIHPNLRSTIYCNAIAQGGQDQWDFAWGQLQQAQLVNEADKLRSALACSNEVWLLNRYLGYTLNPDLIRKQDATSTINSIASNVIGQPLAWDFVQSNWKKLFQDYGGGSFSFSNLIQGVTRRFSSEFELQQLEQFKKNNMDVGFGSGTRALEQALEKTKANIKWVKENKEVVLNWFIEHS

Molecule: CC(C)C[C@H](NC(=O)[C@H](Cc1ccc(O)cc1)NC(=O)[C@H](Cc1ccccc1)NC(=O)[C@H](CCC(=O)O)NC(=O)[C@@H](NC(=O)[C@H](CCC(=O)O)NC(=O)[C@H](CC(=O)O)NC(=O)[C@H](CCCNC(=N)N)NC(=O)[C@H](C)N)[C@@H](C)O)C(=O)O (H-ARDETEFYL-OH)
EC50 (B*3909): 5 µM

Molecule: CC(C)C[C@H](NC(=O)[C@H](C)NC(=O)[C@@H](NC(=O)[C@@H](NC(=O)CNC(=O)[C@@H]1CCCN1C(=O)[C@H](CCCNC(=N)N)NC(=O)[C@@H](N)Cc1ccc(O)cc1)[C@@H](C)O)C(C)C)C(=O)O [YRPGTVAL] (H-YRPGTVAL-OH)
EC50 (B*3909): 12 µM

not cleaved (aminopeptidase M): signals remained strongly significant
Molecule: NAc-SHVAVENAL

cleaved bond (20S proteasome): L9-G10, major
Molecule: NAc-SHVAVENALGLDQQFAGLDLNSSDNQSGGS

Molecule: THGPPVQL
MALDI-TOF MS peak signal after digestion with aminopeptidase M [1]: reduced almost to background levels
